According to ChEMBL document CHEMBL5653619, “A potent, selective and cell-active allosteric inhibitor of protein arginine methyltransferase 3 (PRMT3)” (Angew Chem Int Ed Engl, 2015):

Assays:
[1] = biological target: T1, 5-hydroxytryptamine receptor 2B (Homo sapiens, UniProt P41595); assay: Inhibition of [3H]LSD binding to 5-HT2B receptor (unknown origin)
HFF [2] = assay: Cytotoxicity against HFF cells assessed as reduction in cell viability incubated for 24 hrs by alamar blue assay; assay type: toxicity, cell-based; conditions: human
[3] = biological target: T1, 5-hydroxytryptamine receptor 2B; conditions: dose 32000.0 nM
Description: Inhibition of [3H]LSD binding to 5-HT2B receptor (unknown origin) assessed as maximum inhibition at 32000 nM relative to control

MDA-MB-231 [4] = assay: Cytotoxicity against human MDA-MB-231 cells assessed as reduction in cell viability at 50 to 100 uM incubated for 72 hrs by alamar blue assay; assay type: toxicity, cell-based; conditions: mda-mb-231, 72 h, dose 50-100 µM
[5] = Toxicity in CD-1 mouse assessed as drug tolerance at 30 mg/kg, ip measured for 6 hrs; assay type: organism-based; conditions: in vivo
U2OS [6] = assay: Cytotoxicity against human U2OS cells assessed as reduction in cell viability incubated for 24 hrs by alamar blue assay; assay type: toxicity, cell-based
[7] = Half life in CD-1 mouse at 30 mg/kg, ip measured for 6 hrs; assay type: ADME, organism-based; conditions: in vivo
MCF7 [8] = assay: Cytotoxicity against human MCF7 cells assessed as reduction in cell viability at 50 to 100 uM incubated for 72 hrs by alamar blue assay; assay type: toxicity, cell-based; conditions: mcf7, 72 h, dose 50-100 µM
HEK293 [9] = assay: Cytotoxicity against HEK293 cells assessed as reduction in cell viability incubated for 24 hrs by alamar blue assay; assay type: toxicity, cell-based; conditions: human, hek293, 24 h
MDA-MB-231 [10] = assay: Cytotoxicity against human MDA-MB-231 cells assessed as reduction in cell viability incubated for 24 hrs by alamar blue assay; assay type: toxicity, cell-based; conditions: mda-mb-231, 24 h
LNCaP [11] = assay: Cytotoxicity against human LNCaP cells assessed as reduction in cell viability incubated for 24 hrs by alamar blue assay; assay type: toxicity, cell-based
[12] = biological target: KV channel (voltage-gated potassium channel family) (Homo sapiens, UniProt O43525+O43526+O95259+P16389+P17658+P22001+P22459+P22460+P48547+P51787+P56696+Q03721+Q09470+Q12809+Q14003+Q14721+Q16322+Q6PIU1+Q8NCM2+Q8TAE7+Q8TDN1+Q8TDN2+Q92953+Q96KK3+Q96L42+Q96PR1+Q96RP8+Q9BQ31+Q9H252+Q9H3M0+Q9NR82+Q9NS40+Q9NSA2+Q9NZV8+Q9UIX4+Q9UJ96+Q9UK17+Q9ULD8+Q9ULS6+Q9UQ05); assay: Inhibition of KV channel (unknown origin) at 10 uM by antagonist ligand based assay relative to control; assay type: protein assay
U2OS [13] = assay: Cytotoxicity against human U2OS cells assessed as reduction in cell viability at 50 to 100 uM incubated for 72 hrs by alamar blue assay; assay type: toxicity, cell-based; conditions: dose 50-100 µM
LNCaP [14] = assay: Cytotoxicity against human LNCaP cells assessed as reduction in cell viability at 50 to 100 uM incubated for 72 hrs by alamar blue assay; assay type: toxicity, cell-based; conditions: dose 50-100 µM
[15] = Drug concentration in CD-1 mouse plasma at 30 mg/kg, ip measured at 6 hrs post injection; assay type: ADME, organism-based
MCF7 [16] = assay: Cytotoxicity against human MCF7 cells assessed as reduction in cell viability incubated for 24 hrs by alamar blue assay; assay type: toxicity, cell-based; conditions: mcf7, 24 h
HEK293 [17] = assay: Cytotoxicity against HEK293 cells assessed as reduction in cell viability at 50 to 100 uM incubated for 72 hrs by alamar blue assay; assay type: toxicity, cell-based; conditions: human, hek293, 72 h, dose 50-100 µM
HFF [18] = assay: Cytotoxicity against HFF cells assessed as reduction in cell viability at 50 to 100 uM incubated for 72 hrs by alamar blue assay; assay type: toxicity, cell-based; conditions: human, dose 50-100 µM

T1 sequence (P41595 whole entry): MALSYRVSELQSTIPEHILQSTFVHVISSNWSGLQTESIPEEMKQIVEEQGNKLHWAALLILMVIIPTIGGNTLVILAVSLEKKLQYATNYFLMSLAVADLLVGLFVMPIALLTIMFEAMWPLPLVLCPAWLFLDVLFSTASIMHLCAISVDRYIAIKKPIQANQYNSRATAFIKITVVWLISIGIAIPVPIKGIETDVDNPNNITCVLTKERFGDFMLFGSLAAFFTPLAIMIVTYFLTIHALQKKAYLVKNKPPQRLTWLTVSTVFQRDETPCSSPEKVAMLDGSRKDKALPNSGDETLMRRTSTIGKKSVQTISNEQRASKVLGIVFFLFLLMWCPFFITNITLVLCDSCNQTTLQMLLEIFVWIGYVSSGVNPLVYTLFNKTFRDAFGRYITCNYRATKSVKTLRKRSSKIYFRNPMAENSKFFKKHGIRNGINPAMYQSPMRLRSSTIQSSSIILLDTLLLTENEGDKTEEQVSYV

Ki [1] | Imax [3] | half-life [7] | inhibition at 10 µM [12] | concentration at 6 h [15] | Compound | Activity (HFF [2]) | Activity (MDA-MB-231 [4]) | Activity [5] | Activity (U2OS [6]) | Activity (MCF7 [8]) | Activity (HEK293 [9]) | Activity (MDA-MB-231 [10]) | Activity (LNCaP [11]) | Activity (U2OS [13]) | Activity (LNCaP [14]) | Activity (MCF7 [16]) | Activity (HEK293 [17]) | Activity (HFF [18])
18.5 nM | – | – | – | – | Cn1ccc2cc3c(cc21)CCN3C(=O)Nc1cccnc1 | – | – | – | – | – | – | – | – | – | – | – | – | –
> 15000 nM | 50% | ~1 h | -12% | 208 nM | O=C(NCC(=O)N1CCCC1)Nc1ccc2cnccc2c1 | Non-Toxic | Toxic | Non-Toxic | Non-Toxic | Toxic | Non-Toxic | Non-Toxic | Non-Toxic | Toxic | Toxic | Non-Toxic | Toxic | Toxic
